These results are taken from article PMC12472551, “Comprehensive Identification and Mechanistic Evaluation of Novel DHODH Inhibitors as Potent Broad-Spectrum Antiviral Agents” (Pharmaceuticals, 2025).

Data set [1] relates to human lung organoids. Particulars: viral replication in human lung organoids; cited from earlier work.
For data set [2], the system named is influenza A virus (A/PR/8/34(H1N1)). The experiment in a line: microbe, parasite or virus in culture. The format is cell-based.
The nature of data set [3]: MTT cytotoxicity assay in MDCK cells. It counts as cell-based, Canine. Conditions: dog. On the procedure: (§1) The cytotoxic effects of the test compounds on MDCK and Vero cell lines were evaluated utilizing the 3-(4,5-dimethylthiazol-2-yl)-2,5-diphenyltetrazolium bromide (MTT) assay. In brief, cells were seeded in 96-well plates and maintained in complete growth medium. After an overnight incubation period, this medium was aspirated and replaced with serum-free DMEM containing the compounds at predetermined concentrations. After 48 h of treatment, MTT dissolved in PBS was introduced into each well to achieve a final concentration of 0.5 mg/mL. Subsequent incubation at 37 °C for 2 h facilitated formazan crystal formation. The medium was then aspirated, and DMSO was added to solubilize the formazan crystals. Absorbance measurements at 540 nm were conducted using a CLARIOstar microplate reader.

A short description of data set [4]: MTT cytotoxicity assay in Vero cells. It counts as cell-based. Particulars: African green monkey, Vero-ACE2-TMPRSS2 cells. As to the method:
A Vero-ACE2-TMPRSS2 (labelled ‘Vero’ hereafter) cell line was used for SARS-CoV-2.
as §1
On the technique in general: Formazan colour is commonly taken as a measure of viable cells.

Data set [5] deals with SARS-CoV-2. In words: microbe, parasite or virus in culture. The format is cell-based. Particulars: Severe acute respiratory syndrome coronavirus 2.
For data set [6], the target named is human DHODH (Homo sapiens, UniProt Q02127). In words: Surface plasmon resonance binding.
human DHODH, sequence (Q02127 whole entry): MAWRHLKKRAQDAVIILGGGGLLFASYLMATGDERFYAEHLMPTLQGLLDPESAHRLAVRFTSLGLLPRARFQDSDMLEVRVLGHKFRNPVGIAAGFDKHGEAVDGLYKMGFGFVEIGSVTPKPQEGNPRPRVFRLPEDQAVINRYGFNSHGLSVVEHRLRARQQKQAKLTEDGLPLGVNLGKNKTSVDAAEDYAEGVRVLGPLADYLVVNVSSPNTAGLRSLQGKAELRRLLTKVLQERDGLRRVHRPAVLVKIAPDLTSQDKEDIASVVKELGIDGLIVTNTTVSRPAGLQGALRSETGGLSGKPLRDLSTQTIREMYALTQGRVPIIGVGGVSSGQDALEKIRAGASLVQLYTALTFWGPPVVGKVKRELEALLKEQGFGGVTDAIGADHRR
Data set [7] concerns DHODH. Particulars: cited from earlier work.
The test system of data set [8] is DENV and ZIKV viruses. The arrangement: method as in PMID 33716051. Particulars: cited from earlier work.
For data set [9] the following is noted: read-out: CC50 (hematological toxicity); cited from earlier work.
[10] abbreviates: Influenza A virus, MDCK, A/PR/8/34(H1N1), MDCK cells, plaque reduction, read-out: IC50.
[11] abbreviates: SARS-CoV-2, Vero-ACE2-TMPRSS2 cells, plaque assay, read-out: IC50.

Read-outs that look alike come from different tables or passages of the source. Bounds are passed on as bounds.

A word on the EC50: it is the concentration that produces a half-maximal response. As for `CCn1c(CO)nn(-c2cc(O[C@@H](C)C(F)(F)F)c(C(=O)Nc3c(F)cccc3Cl)cc2F)c1=O` [BAY 2402234], the EC50 in data set [1] was 0.032 µM.

For orientation: IC50 means the concentration that inhibits the measured activity by half. `COC(=O)OCOc1c2n(ccc1=O)N([C@@H]1c3ccccc3SCc3c1ccc(F)c3F)[C@@H]1COCCN1C2=O` [Baloxavir marboxil, reference compound]: in data set [2] (setting [10]), the IC50 was determined as 0.00967 ± 0.00112 µM.

The term CC50 denotes the concentration at which the toxic effect on the cells reaches its halfway point. Molecule `CC1(c2ccccc2)CC(C)(C)N(C(=O)CSc2nc(O)cc(CSc3ccc(Cl)cc3)n2)c2ccccc21` (centres unmarked) [Compound 1] came in with a half-maximal cytotoxic concentration (CC50) at 48 h in data set [3] of 34.5 ± 1.58 µM. The same molecule returned an IC50 in [2] (Influenza A virus, MDCK) of 36.8 ± 2.36 µM.

Consider `O=C(CCCCCn1c(=O)c2sccc2n(CC(=O)NCCC2=CCCCC2)c1=O)NCc1ccc(F)cc1` [Compound 2], for which, in [3], the CC50 at 48 h was more than 200 µM. In addition, the IC50 in [2] (Influenza A virus, MDCK) was more than 200 µM.

In turn, `COC(=O)c1ccc(NC(=O)CSc2nc(-c3sc(-c4ccccc4)nc3C)cc(=O)[nH]2)cc1` [Compound 3] registered a CC50 at 48 h in [3] of more than 200 µM. The IC50 in data set [2] (Influenza A virus, MDCK) was more than 200 µM.

`CCCCc1nn2c(=O)cc(CSc3nc4ccc(NC(C)=O)cc4s3)nc2s1` [Compound 4]: the half-maximal cytotoxic concentration (CC50) at 48 h in [3] is more than 200 µM. Moreover, in data set [2] (Influenza A virus, MDCK), the IC50 turned out to be 66.2 ± 6.29 µM.

Molecule `O=C(COc1ccccc1)Nc1ccc(N2CCN(c3ccccc3F)CC2)cc1C(=O)O` [Compound 5] registered a CC50 at 48 h in [3] of more than 200 µM. In data set [2] (Influenza A virus, MDCK), this molecule yielded an IC50 of more than 200 µM.

Molecule `CC(=O)c1ccc(N2CCN(C(=O)c3cc4c(=O)n(C)c5ccccc5c4s3)CC2)cc1` [Compound 6] came in with a CC50 at 48 h in [3] of more than 200 µM. In data set [2] (Influenza A virus, MDCK), this molecule yielded an IC50 of 4.85 ± 0.58 µM.

As to `O=C(Cc1cccs1)Nc1ccc(N2CCN(c3ccccc3Cl)CC2)cc1C(=O)O` [Compound 7], the CC50 at 48 h in [3] is more than 200 µM. Also, the IC50 in [2] (Influenza A virus, MDCK) came to 17.2 ± 1.19 µM.

For the molecule `CN1C(=O)c2ccccc2Sc2cc(-c3noc(CNC(=O)Cc4ccc(Cl)cc4)n3)ccc21` [Compound 8], the CC50 at 48 h in data set [3] was more than 200 µM. In addition, the IC50 in data set [2] (Influenza A virus, MDCK) stood at 13.4 ± 2.45 µM.

With `Cc1ccc(-c2onc3ccc(-c4cc(C(=O)O)c5ccccc5n4)cc23)cc1` [Compound 9], in data set [3], the CC50 at 48 h is more than 200 µM. In [2] (Influenza A virus, MDCK), this molecule came in with an IC50 of 7.35 ± 1.65 µM.

Turning to `Cc1ccc(-c2onc3ccc(-c4cc(C(=O)O)c5cc(C)ccc5n4)cc23)cc1` [Compound 10], the CC50 at 48 h in data set [3] was more than 200 µM. In addition, the IC50 in data set [2] (Influenza A virus, MDCK) is 1.75 ± 0.28 µM.

As for `Cc1cc2nc(C)c(C(=O)O)n2cc1-c1ccc(-c2ccccc2)cc1` [Compound 11, 6-([1,1′-Biphenyl]-4-yl)-2,7-dimethylimidazo[1,2-a]pyridine-3-carboxylic acid], the CC50 at 48 h in data set [4] and in data set [3] was more than 200 µM each time. Besides, the IC50 in data set [2] (setting [10]) came to 0.85 ± 0.05 µM; in data set [5] (setting [11]), 3.6 ± 0.67 µM. Moreover, in data set [6] (read-out: Ka, association constant), the kon worked out at 4.83e+06 M⁻¹ s⁻¹. Also, the koff in data set [6] (read-out: Kdis, dissociation constant) came to 29.3 s⁻¹.

Turning to `Cc1nc2ccc(-c3ccc(-c4ccccc4)cc3)cn2c1C(=O)O` [Compound 12, 6-([1,1′-Biphenyl]-4-yl)-2-methylimidazo[1,2-a]pyridine-3-carboxylic acid], the CC50 at 48 h in data set [4] and in data set [3] was more than 200 µM in each case. In addition, the IC50 was 100 ± 1.13 µM in data set [2] (A/PR/8/34(H1N1), MDCK cells, plaque reduction, read-out: IC50); more than 100 µM in data set [2] (setting [10]); more than 200 µM in [5] (setting [11]).

With `Cc1nc2ncc(-c3ccc(-c4ccccc4)cc3)cn2c1C(=O)O` [Compound 13, 6-([1,1′-Biphenyl]-4-yl)-2-methylimidazo [1,2-a]pyrimidine-3-carboxylic acid], the CC50 at 48 h in data set [4] and in [3] was more than 200 µM each time. Also, the IC50 in data set [2] (setting [10]) stood at 1.08 ± 0.26 µM; in data set [5] (setting [11]), 105 ± 5.19 µM.

On to `CCOC(=O)c1c(C)nc2ccc(-c3ccc(-c4ccccc4)cc3)cn12` [Compound 14, Ethyl 6-([1,1′-biphenyl]-4-yl)-2-methylimidazo[1,2-a]pyridine-3-carboxylate], for which the CC50 at 48 h in data set [4] and in data set [3] was more than 200 µM each time. The IC50 in [2] (setting [10]) and in data set [5] (setting [11]) was more than 200 µM in each case.

For the molecule `CCOC(=O)c1c(C)nc2cc(C)c(-c3ccc(-c4ccccc4)cc3)cn12` [Compound 15, Ethyl 6-([1,1′-biphenyl]-4-yl)-2,7-dimethylimidazo[1,2-a]pyridine-3-carboxylate], the CC50 at 48 h in [4] and in [3] was more than 200 µM throughout. Also, the IC50 in [2] (setting [10]) and in data set [5] (setting [11]) was more than 200 µM each time.

`CCOC(=O)c1c(C)nc2ncc(-c3ccc(-c4ccccc4)cc3)cn12` [Compound 16, Ethyl 6-([1,1′-biphenyl]-4-yl)-2-methylimidazo[1,2-a]pyrimidine-3-carboxylate]: the CC50 at 48 h in data set [4] and in data set [3] was more than 200 µM throughout. Besides, the IC50 in data set [2] (setting [10]) and in data set [5] (setting [11]) was more than 200 µM each time.

For `C/C(O)=C(\C#N)C(=O)Nc1ccc(C(F)(F)F)cc1` [Compound 17, teriflunomide, reference compound], the CC50 at 48 h in data set [4] is more than 200 µM; in [3] it was 181 ± 16.4 µM. Also, the IC50 in data set [7] (competing with ubiquinone, read-out: IC50 (DHODH inhibition)) was […]; in data set [2] (setting [10]), 35 ± 3.33 µM; in [5] (setting [11]), 26.1 ± 4.32 µM.

Consider `Cc1c(-c2ccc(-c3ccccc3F)cc2)nc2ccc(F)cc2c1C(=O)O` [Compound 18, brequinar], for which the EC50 in data set [8] is 0.017 to 0.061 µM. Also, the CC50 in data set [9] is more than 5 µM. Also, the “Ka, association constant” value in data set [6] (SPR) is listed as 1.31 × 10^6 M^−1S^−1.

With `CCC(CC)COC(=O)[C@H](C)N[P@](=O)(OC[C@H]1O[C@@](C#N)(c2ccc3c(N)ncnn23)[C@H](O)[C@@H]1O)Oc1ccccc1` [Remdesivir, reference compound], half-maximal inhibition in data set [5] (IC50) required 4.95 ± 0.78 µM.

Consider `COc1cccc(-c2ccc(NC(=O)C3=C(C(=O)O)CCC3)c(F)c2)c1` [vidofludimus], for which, in [7] (enhanced selectivity, read-out: IC50), the IC50 was 0.041 to 0.16 µM.
